“Also recorded” adds a separate entry of the source.
Columns and labels:
[1] = test system: retinal neovascularization; settings: intravitreal injection; hypoxic mouse model; cited from earlier work
[2] = test system: Ad-N1IC-transduced HUVEC; test: Notch (Ad-N1IC)-induced HUVEC budding; format: cell-based, human
Protocol: HUVEC were transduced with either Ad-LacZ or Ad-N1IC at 40 MOI. FIGS. 23A-23C show the effect of inhibitors for receptor tyrosine kinases on Notch-induced HUVEC budding. FIG. 23A is a photograph of budding of Ad-N1IC-transduced HUVEC treated with PD166866, ZD1893 at 1 μM and SU5416 at 0.5 μM. […] FIGS. 23D-E show induction of Flt-1 expression in Ad-N1IC-transduced HUVEC. […] FIGS. 23F-G show promotion of Notch-induced HUVEC budding with PlGF stimulation. Ad-N1IC-transduced HUVEC were cultured on collagen gel with SFM, instead of complete medium, in the absence or presence of 50 ng/ml PlGF. […] FIGS. 23H-I show the effect of Flt-1 siRNA transfection on Flt1 expression. Ad-N1IC-transduced HUVEC were transfected with 200 pmol of either control (CT) or Flt-1 siRNA. […] Ad-N1IC-transduced HUVEC were transfected with either 100 or 200 pmol of siRNA and cultured on collagen gel for 2 days.
Either Ad-LacZ or Ad-N1IC-HUVEC at a MOI of 40 pfu/cell were cultured on collagen gel for 5 days in the absence or presence of GM6001 at 50 μm.
For making collagen gels, an ice-cold solution of porcine type I collagen (Nitta gelatin, Tokyo, Japan) was mixed with 10×RPMI1640 medium and neutralization buffer at the ratio of 8:1:1. 400 μl aliquots of collagen gel were then added to 24-well plates and allowed to gel for at least 1 hour at 37° C. Following adenoviral infection (above), HUVEC was harvested and plated at 1.3×10^5 cells per well onto the top of the collagen gel in 24-well plates in 0.8 ml of EGM2 medium. HUVEC became nearly confluent 48 hours after plating. After seeding, medium was changed every 2 days for 1 week. Sprouting was observed and photographs taken after 8 days with an Olympus digital camera mounted to a microscope. For quantification of the number of sprouts, 5 fields per each well were randomly selected and sprouting was counted under microscopy in a blind manner by two investigators.

[3] = test system: Jagged1 and Dll1 expression in Mm5MT-FGF4 cells; test: Quantitative RT-PCR of Notch ligands in Mm5MT-FGF4 transfectants; format: cell-based, mouse; settings: 1 μm PD166866, 7 days
Protocol: Mm5MT transfectants were cultured 7 days with vehicle or 1 μm PD166866 (inhibitor of FGF receptor-kinase), total RNA isolated (RNeasy mini-kit, Qiagen, Valencia, Calif.), and first-strand cDNA synthesized (SuperScript™ First-Strand Synthesis System, Invitrogen). Quantitative RT-PCR for β-actin, FGF4, Jagged1, Dll1, and Dll4 (SYBER Green PCR Master Mix, 7300 Real Time PCR; Applied Biosystems, Foster City, Calif.) was performed in triplicate and values normalized for β-actin. Values are shown for fold induction compared to controls (primer sequences available on request).

[4] = test system: Ad-Notch4 transduced HUVEC; test: Endothelial co-culture morphogenesis assay (Notch4-induced extensions on fibrin gel); format: cell-based, human; settings: 200 nM compound E vs vehicle
Protocol: HUVEC morphogenesis was assessed as described (11), modified by adding co-culturing of Ad-Notch4 transduced HUVEC with Notch1 decoy- or Fc-HUVEC transfectants. Ad-GFP at 10 m.o.i. was co-transduced in HUVECs with Ad-LacZ or Ad-Notch4 at 30 m.o.i and 48 h later seeded on fibrin gels (24-well plates, 1.5×10^4 cells/well). Stable HUVEC-mock (HUVEC-X), HUVEC-Fc, or HUVEC-N1ECDFc transfectants were seeded at 1.35×10^5 cells/well, and vehicle or 200 nM compound E added 3 h later. Seven days later, HUVEC morphogenesis was calculated as the number of GFP-positive cells with processes compared to total GFP-positive cells/field.

[5] = test system: C2C12 cells; test: C2C12 myoblast differentiation; format: cell-based; settings: C2C12 transduced with Foxo1-ADA
Protocol: FIGS. 38A-38C These Figures show the quantitative analysis of C2C12 differentiation. […] Results from differentiation experiments were analyzed by scoring the number of Myosin-immunostained cells as percentage of all DAPI-positive cells. […] We carried out reporter gene assays using the canonical Foxo1-responsive Igfbp1 promoter (left panel) and the Hes1 promoter (right panel) in cells co-transfected with Foxo1-ADA or DBD-Foxo1ADA. […] An asterisk indicates P<0.01 by ANOVA.
C2C12 cells were differentiated as described (3, 4). Foxo1-ADA, Notch1-IC, Jagged1, Csl and Notch decoy adenoviral and mammalian expression vectors have been described (36, 51). We generated retroviruses expressing Foxo1-ADA and Notch1-IC using the pQCXIH vector. To generate Notch decoy (pAdlox Notch1ECD-Fc), the extracellular domain of Notch1(bp 241-4229, GenBank accession# X57405) was fused in frame with human IgG Fc tag and cloned into pAdlox. Retroviral supernatant was produced from cells transiently co-transfected with pVSV-G vector and designated pQCXIH vector into GP2-293 cells (BD Bioscience). To generate the DNA binding-deficient Foxo1, we replaced N208 and H212 with alanine and arginine, respectively, using QuikChange Mutagenesis Kit (Stratagene). The mutations were then cloned in the backbone of the Foxo1-ADA mutant. […]

[6] = test system: VEGF induced retinal microvascular permeability and vasoconstriction; settings: subcutaneous injection; diabetic rat model; cited from earlier work
[7] = test system: CBF1 promoter activity in Ad-VEGF-infected HUVEC; test: VEGF-induced Notch signaling, CBF1 (CSL) promoter reporter in HUVEC; format: cell-based, human; settings: SU5416 treatment of Ad-VEGF-transduced HUVEC
Protocol: To determine VEGF-induced Notch signaling, HUVEC which were infected with adenovirus were used. HUVEC plated 1-day prior in 6 well plates at 8.0×10^5 were infected with either Ad-LacZ as control or Ad-VEGF at indicated m.o.i. in the presence or absence of Ad-N1ECD/Fc. Two days after infection, infected HUVEC were re-seeded into 24-well plate at 1.5×10^5 cell in triplicate and cultured for 24 hours, and then transfected with 12.5 ng pRL-SV40 (Promega) and 137.5 ng pGA981-6 using Effectene transfection reagent (Qiagen). Cells were harvested either 1 or 2 days post-transfection and luciferase activity was determined by using the Dual-Luciferase® Reporter Assay System (Promega).
One can measure Notch signaling function by measuring transcriptional activity of CBF1 promoter, which is activated by binding of Notch-IC to CBF1. We measured CBF1 promoter activity in HUVEC which was infected with adenovirus encoding VEGF-165 at different MOI (FIG. 6). Induction of CBF1 promoter was clearly detected in Ad-VEGF-infected HUVEC, compared to Ad-LacZ-infected cells in the MOI dependent manner. […] Thus VEGF induced Notch signaling activity.

[8] = Ad-N1IC at 40 MOI, receptor tyrosine kinase inhibitors at 1 μM

## Clc1ccc(Nc2nnc(Cc3ccncc3)c3ccccc23)cc1 [PTK/ZK]
[1]
  retinal neovascularization: reduces retinal neovascularization

## COc1cc(OC)cc(-c2cc3cnc(N)nc3nc2NC(=O)NC(C)(C)C)c1 [PD166866]
[2]; [8]
  budding of Ad-N1IC-HUVEC: Neither PD166866 or ZD1893 affected budding
[3]
  FGF4-induced Jagged1 and Dll1 expression: suppressed induction of both Jagged1 and Dll1; also recorded: reduction of Notch ligand expression

## CNC(=O)[C@H](Cc1c[nH]c2ccccc12)NC(=O)[C@@H](CC(=O)NO)CC(C)C [GM6001]
[2]; GM6001 at 50 μm, 5 days, collagen and fibrin gel
  budding of Ad-N1IC-HUVEC: clearly decreased budding of Ad-N1IC-HUVEC

## C[C@H](NC(=O)Cc1cc(F)cc(F)c1)C(=O)N[C@H]1N=C(c2ccccc2)c2ccccc2N(C)C1=O [Compound E]
[4]; p<0.0001
  Notch4-induced HUVEC extensions: clearly inhibited extensions
[4]; p<0.0001, listed as compound E
  Notch4-induced HUVEC extensions: blocks Notch4-induced extensions
[5]
  rescue of Foxo1-ADA inhibition of myoblast differentiation: also rescued Foxo1-ADA inhibition of myoblast differentiation

## Cc1cc(C)c(/C=C2\C(=O)Nc3ccccc32)[nH]1 [SU5416]
[2]; [8]
  budding of Ad-N1IC-HUVEC: clearly inhibited
[2]; lower concentrations of SU5416
  viability of Ad-N1IC-HUVEC (dose-dependency of SU5416): less reduction of viability at lower concentrations
[6]
  VEGF induced retinal microvascular permeability and vasoconstriction: suppresses VEGF induced retinal microvascular permeability and vasoconstriction
[7]
  VEGF-induced CSL-luciferase reporter activity: decreased VEGF-induced CSL-luciferase reporter activity

B1: PlGF: a selective ligand for Flt1 (protein, UniProt P49763 19-221, looked up)
Placenta growth factor: LPAVPPQQWALSAGNGSSEVEVVPFQEVWGRSYCRALERLVDVVSEYPSEVEHMFSPSCVSLLRCTGCCGDENLHCVPVETANVTMQLLKIRSGDRPSYVELTFSQHVRCECRHSPGRQSPDMPGDFRADAPSFLPPRRSLPMLFRMEWGCALTGSQSAVWPSSPVPEEIPRMHPGRNGKKQQRKPLREKMKPERCGDAVPRR
[2]; 50 ng/ml PlGF, SFM
  increase in HUVEC buds containing multiple filopodia: 250%
[2]; 50 ng/ml PlGF, SFM, compared to the absence of PlGF
  increase in number of Ad-N1IC-HUVEC buds: 150%

From patent publication US9127085B2, “Compositions of humanized notch fusion proteins and methods of treatment” (THE TRUSTEES OF COLUMBIA UNIVERSITY IN THE CITY OF NEW YORK, priority 2007, dated 2015)
